# According to patent publication US20230211020A1, “TREATMENT OF INFECTIONS” (ACT Therapeutics Ltd, priority 2020, published 2023):
# How the values were obtained:
# [1] = Tissue specific uptake of Evans Blue in thigh muscle with ACT (Example 2, Study 1); type: in vivo; conditions: for EB ratio of the left (treated) to right (untreated) thigh muscle, average±SD: 30 min after treatment; for increase in the uptake upon ACT treatment: US insonated tissue vs. untreated
# Method: The tissue specific uptake of Evans Blue (EB, a fluorescent dye) has been investigated in a mouse model. Under physiologic conditions, the endothelium is impermeable to albumin, and Evans blue bound albumin remains confined within blood vessels. Thus, Evans blue is often used as a model compound in drug delivery studies [Bohmer et al., J Controlled Release, 148, Issue 1, 2010, pp. 18-24].
# Female Balb/c nude mice were used. Before treatment, the mice were administered surgical anesthesia by subcutaneous injection of a mix of Fentanyl (0.05 mg/kg), Midazolam (5 mg/kg), and Medetomidine (0.5 mg/kg). An intravenous cannula (BD Neoflon™ 24 GA) was placed in the tail vein. Patency was verified by injection of a slight amount of 0.9% sodium chloride for injection after which a small amount of heparin (10 U/ml) was injection to prevent clotting. The hub of the cannula was filled with 0.9% sodium chloride for injection to eliminate any dead space and closed with a cap. The cannula was secured to the tail with surgical tape.
# Evans Blue solution (50 mg EB/kg) was injected i.v. followed immediately by 2 ml/kg of the cluster dispersion as detailed in Example 1. Two groups where compared (N=3 for each group): 1) EB+cluster dispersion and 2) EB+cluster dispersion+Activation and Enhancement ultrasound insonation.
# The left hind limb of the mouse was placed in a water bath with two US transducers poised for insonation of the left thigh. Ultrasound Activation insonation was provided by a VScan clinical ultrasound scanner (GE Healthcare) with a 2 MHz probe for 45 seconds (MI=0.8) starting from the injection time. This was immediately followed by the Enhancement step comprising 5 minutes 500 kHz ultrasound insonation (MI=0.2) using a single element transducer (Imasonic SAS). Thirty minutes after treatment the animals were sacrificed, tissue samples; thigh muscle from the treated (left) leg and thigh muscle from the contra lateral untreated leg, were harvested and Evans Blue content extracted and quantified. The concentration in the treated thigh muscle was divided by the concentration in the untreated thigh muscle for each animal (matched pair) to provide a dimensionless ratio of the increased uptake in the treated muscle. A one-way ANOVA was applied to the data.
# [2] = test system: methicillin susceptible strain of Staphylococcus aureus; assay: Neutropenic staphylococcal thigh infection model, Levofloxacin with or without ACT (Example 3); type: in vivo; conditions: mice, dose-response study, read-out: ED50 (dose that induces a half maximal decline in bacterial density)
# Text: An established experimental model of staphylococcal thigh infection in a neutropenic thigh infection model was used and neutropenia will be induced with cyclophosphamide. The thigh infection model provides a sensitive experimental system for initial studies of antimicrobial efficacy in a mammalian system. This model is the most standardised for the evaluation of antimicrobial-microbial interactions combined with antimicrobial pharmacokinetics assessed in serum and tissues samples.
# The challenge isolate was methicillin susceptible strain of Staphylococcus aureus is and both thighs were inoculated. Treatment was initiated 2 h after inoculation, thighs was harvested after 26 h and the bacterial density (colony forming units, CFU) in the excised tissue was determined. An initial dose finding study was performed to define the LEV ED50 (the dose that induces a half maximal decline in bacterial density). Within the study, LEV was be dosed intraperitoneal at 20 mg/kg.
# The cluster composition investigated was as detailed in Example 1. […]
# The bacterial density in the thighs harvested from the various groups was determined by growing a diluted sample of the excised tissue, homogenized in sterile PBS, on a plate with growth medium and counting the number of CFU.
# [3] = test system: T. saginata and Taenia solium (pork tapeworm) infection; conditions: in vivo; cited from earlier work
structure (smiles),measurement,setting,value
"Cc1cc(-c2ccc(/N=N/c3ccc4c(S(=O)(=O)O)cc(S(=O)(=O)O)c(N)c4c3O)c(C)c2)ccc1/N=N/c1ccc2c(S(=O)(=O)O)cc(S(=O)(=O)O)c(N)c2c1O [EB, Evans Blue]","EB ratio of the left (treated) to right (untreated) thigh muscle, average±SD",[1]; EB 50 mg/kg i.v. + cluster dispersion 2 ml/kg + Activation and Enhancement US insonation,2.0±0.3
same,"EB ratio of the left (treated) to right (untreated) thigh muscle, average±SD","[1]; EB 50 mg/kg i.v. + cluster dispersion 2 ml/kg, no US insonation",1.1±0.2
same,increase in the uptake upon ACT treatment,[1],about 100%
same,increase in the uptake upon ACT treatment,[1]; listed as Evans Blue,100%
"C[C@H]1COc2c(N3CCN(C)CC3)c(F)cc3c(=O)c(C(=O)O)cn1c23 [LEV, Levofloxacin]",ED50,[2],~24 mg/kg
O=C(Nc1ccc([N+](=O)[O-])cc1Cl)c1cc(Cl)ccc1O [Niclosamide],cure rates,[3],approximately 90%
